From US20240373844A1, “PYROGLUTAMIC ACID AS AN HERBICIDE SAFENER AND METHODS OF USE THEREOF” (Verdesian Life Sciences U.S., LLC, priority 2021, published 2024)

System: corn (Zea mays) plants
Assay: Corn plants treated with glyphosate with and without PGA soil drench: dry biomass and leaf area (Experiment 1)
Type: in vivo
Conditions: 7 days after planting
Procedure: Corn seeds were sown in standard 10 cm diameter pots in peat-based media (Fafard #2/Sunshine Mix #8 soilless media: 75% Canadian sphagnum peat moss, 20% perlite, 5% vermiculite, trace: dolomitic limestone, wetting agent, silicon). Plants were grown under the following environmental conditions: • Temperature: 30° C. day/23° C. • Relative humidity: 60-70% • Photoperiod: 16 hours light/8 hours dark • Light intensity: 800-1000 μMols/m^2/s Treatments were administered 5 days after planting. In experiment 1, glyphosate was applied at 1%, 10%, and 100% of label rate, with and without PGA (0.137 g/L), as outlined in the table below. In Experiment 2, Bayer All-in-One® herbicide was applied at 10% and 100% of the label rate, with and without PGA (0.137 g/L). In both treatments, control plants received water. In both experiments, herbicide was applied as a 0.5 mL droplet by pipet on the 1st fully expanded leaf; PGA was applied as a 50 mL soil drench. Plants were grown in a completely randomized design for an additional 2 days to allow the treatments to take effect. At 7 days after planting, plants were photographed, and destructively harvested for leaf area and dry biomass.

| Structure (SMILES) | Avg(DryWt) (0.137 g/L PGA drench with 1% Label Rate Glyphosate) [g] | Avg(DryWt) (0.137 g/L PGA drench with 10% Label Rate Glyphosate) [g] | Avg(DryWt) (0.137 g/L PGA drench, 0 Glyphosate) [g] | Avg(DryWt) (1% Label Rate Glyphosate, 0.0 g/L PGA) [g] | Avg(DryWt) (10% Label Rate Glyphosate, 0.0 g/L PGA) [g] | Avg(DryWt) (100% Label Rate Glyphosate, 0.0 g/L PGA) [g] |
| --- | --- | --- | --- | --- | --- | --- |
| O=C1CC[C@@H](C(=O)O)N1 [PGA, pyroglutamic acid] | 0.10 | 0.10 | 0.15 |  |  |  |
| O=C(O)CNCP(=O)(O)O [Glyphosate, glyphosate] |  |  |  | 0.12 | 0.06 | 0.05 |
